Experimental data: PubChem BioAssay (NCI)
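Cultured in 96-well plates, cells were exposed to test compound for 48 hours across five concentrations. TGI is the concentration that stops growth completely.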

Key:
Experiment in all cases: inhibition of tumour cell growth, NCI panel, 48 h
[1] = system: OVCAR-5 ovarian
[2] = system: K-562 leukemia
[3] = system: U251 CNS
[4] = system: NCI/ADR-RES ovarian
[5] = system: NCI-H460 lung
[6] = system: SNB-19 CNS
[7] = system: A549 NSCLC
[8] = system: EKVX NSCLC
[9] = system: SK-MEL-28 melanoma
[10] = system: SNB-75 CNS
[11] = system: COLO 205 colon
[12] = system: DU-145 prostate
[13] = system: SK-MEL-5 melanoma
[14] = system: OVCAR-3 ovarian
[15] = system: UO-31 renal
[16] = system: MDA-MB-231 breast
[17] = system: M14 melanoma
[18] = system: SF-295 CNS
[19] = system: UACC-62 melanoma
[20] = system: KM12 colon
[21] = system: 786-0 renal
[22] = system: HL-60(TB) leukemia
[23] = system: HOP-62 NSCLC
[24] = system: HCT-15 colon
[25] = system: OVCAR-8 ovarian
[26] = system: NCI-H23 lung
[27] = system: SW-620 colon
[28] = system: NCI-H522 lung
[29] = system: MDA-N
[30] = system: SN12C renal
[31] = system: HCC-2998 colon
[32] = system: A498 renal
[33] = system: TK-10 renal
[34] = system: MCF7 breast
[35] = system: BT-549 breast
[36] = system: PC-3 prostate
[37] = system: HCT-116 colon
[38] = system: SF-268 CNS
[39] = system: HS 578T breast
[40] = system: IGROV1 ovarian
[41] = system: UACC-257 melanoma
[42] = system: SK-OV-3 ovarian
[43] = system: OVCAR-4 ovarian
[44] = system: MOLT-4 leukemia
[45] = system: NCI-H226 lung
[46] = system: ACHN renal
[47] = system: SF-539 CNS
[48] = system: CAKI-1 renal
[49] = system: T-47D breast
[50] = system: HT29 colon
[51] = system: CCRF-CEM leukemia

Structure (SMILES): O=NNc1nc(-c2cccnc2)nc2ccccc12
- TGI [1]: > 100 µM
- TGI [2]: > 100 µM
- TGI [3]: > 100 µM
- TGI [4]: > 100 µM
- TGI [5]: > 100 µM
- TGI [6]: > 100 µM
- TGI [7]: > 100 µM
- TGI [8]: > 100 µM
- TGI [9]: > 100 µM
- TGI [10]: > 100 µM
- TGI [11]: > 100 µM
- TGI [12]: > 100 µM
- TGI [13]: > 100 µM
- TGI [14]: > 100 µM
- TGI [15]: 32.8 µM
- TGI [16]: > 100 µM
- TGI [17]: > 100 µM
- TGI [18]: > 100 µM
- TGI [19]: > 100 µM
- TGI [20]: > 100 µM
- TGI [21]: > 100 µM
- TGI [22]: > 100 µM
- TGI [23]: > 100 µM
- TGI [24]: > 100 µM
- TGI [25]: > 100 µM
- TGI [26]: > 100 µM
- TGI [27]: > 100 µM
- TGI [28]: > 100 µM
- TGI [29]: > 100 µM
- TGI [30]: > 100 µM
- TGI [31]: > 100 µM
- TGI [32]: > 100 µM
- TGI [33]: > 100 µM
- TGI [34]: > 100 µM
- TGI [35]: > 100 µM
- TGI [36]: > 100 µM
- TGI [37]: > 100 µM
- TGI [38]: > 100 µM
- TGI [39]: > 100 µM
- TGI [40]: > 100 µM
- TGI [41]: > 100 µM
- TGI [42]: > 100 µM
- TGI [43]: > 100 µM
- TGI [44]: > 100 µM
- TGI [45]: > 100 µM
- TGI [46]: > 100 µM
- TGI [47]: > 100 µM
- TGI [48]: > 100 µM
- TGI [49]: > 100 µM
- TGI [50]: > 100 µM
- TGI [51]: > 100 µM
